Results: PMC12785453, “Oral Fluid Concentrations and Pharmacological Effects of Clephedrone and Methylone in Humans” (International Journal of Molecular Sciences, 2025)

Assays:
[1] = test system: healthy volunteers; test: Subjective effects, visual analog scales (VAS), clephedrone study; format: in vivo, humans
From the text: (§1) The study evaluating the acute effects of clephedrone was designed as a non-controlled, prospective, observational, and naturalistic study. The procedures and evaluations included in this study have been described in previous studies evaluating other synthetic cathinones (mephedrone, methylone, alpha-PVP, NEP, HEXEN), phenethylamines (2C-B and 2C-E), or synthetic cannabinoids (JWH-122, JWH-210, UR-144).
(§2) This study consisted of one experimental session in which participants (N = 8; 6 women, 2 men) selected their oral dose of clephedrone based on their drug use experience and preferences. According to their dose selection, 3 women and 1 man ingested 100 mg of clephedrone, while the remaining 3 women and 1 man opted for a higher dose of 150 mg. […] Participants were recruited by word of mouth by the harm reduction organization Energy Control in Barcelona (Associació Benestar i Desenvolupament, ABD).
(§3) Subjective effects were evaluated with visual analog scales (VAS), the short form of the Addiction Research Center Inventory (ARCI), and the Evaluation of Subjective Effects of Substances with Abuse Potential questionnaire (VESSPA-SSE). In addition, the Sensitivity to Drug Reinforcement Questionnaire (SDRQ) and a pharmacological identification class questionnaire were used in the controlled study administering methylone.
VAS encompassed several adjectives that participants had to rate from “not at all” (0 mm) to “extremely” (100 mm) according to their sensations. This scale included 28 items: intensity, stimulated, high, good effects, bad effects, liking, changes in distances, changes in colors, changes in shapes, changes in lights, hallucinations (seeing lights or spots), hallucinations (seeing things, animals, insects, or people), changes in hearing, hallucinations (hearing sounds or voices), drowsiness, concentration, dizziness, confusion, different or changed body feeling, unreal body feeling, different surroundings, unreal surroundings, open, trust, feeling close to others, I want to be with other people, I want to hug someone, sexual desire, and sexual arousal.
(§4) Participants included in the naturalistic clephedrone study completed VAS at baseline, 0.50, 1, 1.5, 2, 3, 4, and 5 h, and ARCI and VESSPA at baseline, 1, 2, 3, 4, and 5 h after self-administering clephedrone. In the controlled study, VAS was performed at baseline and 0.25, 0.50, 0.75, 1, 1.5, 2, 3, 4, 6, 8, 10, and 24 h, and ARCI and VESSPA at baseline and 1, 2, 3, 4, 6, 8, and 10 h after administering methylone. Participants completed SDRQ and VAS sexual desire and arousal at baseline, 1 and 10 h, and the pharmacological class identification questionnaire at 8 h.
(§5) For statistical analysis, values of physiological (SBP, DBP, HR, and T) and subjective effects (VAS, ARCI, and VESSPA-SSE) were baseline–adjusted. Maximum effects (Emax) and the time needed to reach maximum effects (Tmax) were determined, and the area under the curve up to 5 h (AUC0–5h) for clephedrone and up to 6 h (AUC0–6h) for methylone was calculated using the trapezoidal rule. Emax and AUC values are presented as mean ± standard deviation, whereas Tmax is presented in median (range).
(§6) To find possible significant changes through the time course compared to baseline, a Dunnett multiple comparison test was carried out to compare each time point with baseline in both drug conditions. For clephedrone the comparisons were 0–0.5 h, 0–1 h, 0–1.5 h, 0–2 h, 0–3 h, 0–4 h and 0–5 h, and for methylone this analysis included 0–0.25 h, 0–0.5 h, 0–0.75 h, 0–1 h, 0–1.5 h, 0–2 h, 0–3 h, 0–4 h and 0–6 h. Given their different study designs, no comparative analysis between the time courses of both synthetic cathinones was conducted.

[2] = test system: healthy volunteers; test: Subjective effects, ARCI short form, clephedrone study; format: in vivo, humans; details: 100 or 150 mg oral, n=8
From the text: as §1, §2, §3
The validated ARCI 49-item short form was used to evaluate and discriminate the subjective following five subscales that correspond to different classes of drugs of abuse: pentobarbital-chlorpromazine-alcohol group (PCAG) is susceptible to sedative effects, morphine-benzedrine group (MBG) is susceptible to euphoric effects, lysergic acid diethylamide (LSD) is susceptible to dysphoria and somatic symptoms, benzedrine (BG) is susceptible to intellectual efficiency and energy, and amphetamine (A) is susceptible to amphetamine-like effects.
as §4, §5, §6

[3] = 100 or 150 mg oral, n=8, listed as clephedrone
[4] = AUC0–5h, 100 or 150 mg oral, n=8

## CNC(C)C(=O)c1ccc(Cl)cc1 (stereo not drawn) [Clephedrone, 4-chloromethcathinone]
[1]; 100 or 150 mg oral
  Hallucinogenic effects: did not evidence any hallucinogenic effects
  Tmax of the high-scoring VAS subjective effects: 3 h
[1]; 100 or 150 mg oral, n=8
  VAS Bad effects Emax: 0.38 ± 0.74 mm
  VAS Changes in colors Emax: 1.13 ± 2.80 mm
  VAS Changes in colors Tmax: 0.0 (0.0–3.0) h
  VAS Changes in distances Emax: 1.88 ± 4.55 mm
  VAS Changes in distances Tmax: 0.0 (0.0–2.0) h
  VAS Changes in hearing Emax: 8.75 ± 16.24 mm
  VAS Changes in hearing Tmax: 0.0 (0.0–4.0) h
  VAS Changes in lights Emax: 4.75 ± 9.79 mm
  VAS Changes in lights Tmax: 0.0 (0.0–4.0) h
  VAS Concentration Emax: 22.13 ± 16.65 mm
  VAS Confusion Emax: 3.00 ± 3.82 mm
  VAS Different or changed body feeling Emax: 39.63 ± 22.15 mm
  VAS Different surroundings Emax: 13.75 ± 23.50 mm
  VAS Dizziness Emax: 1.13 ± 1.81 mm
  VAS Drowsiness Emax: 14.25 ± 22.86 mm
  VAS Feeling close to others Emax: 53.38 ± 13.79 mm
  VAS Good effects Emax: 58.50 ± 20.46 mm
  VAS High Emax: 54.25 ± 20.19 mm
  VAS I want to be with other people Emax: 34.63 ± 28.16 mm
  VAS I want to hug someone Emax: 37.63 ± 28.01 mm
  VAS Intensity Emax: 49.13 ± 17.18 mm
  VAS Liking Emax: 59.00 ± 18.56 mm
  VAS Open Emax: 49.25 ± 18.78 mm
  VAS Sexual arousal Emax: 20.13 ± 18.70 mm
  VAS Sexual desire Emax: 20.63 ± 19.60 mm
  VAS Stimulated Emax: 48.75 ± 14.47 mm
  VAS Trust Emax: 53.75 ± 20.62 mm
  VAS Unreal body feeling Emax: 2.13 ± 4.16 mm
  VAS Unreal surroundings Emax: 1.50 ± 4.24 mm
[1]; [3]
  VAS Concentration Emax: exceeding 20 mm
  VAS Different or changed body feeling Emax: > 30 mm
  VAS Feeling close to others Emax: exceeding 40 mm
  VAS Good effects Emax: exceeding 40 mm
  VAS High Emax: exceeding 40 mm
  VAS I want to be with other people Emax: > 30 mm
  VAS I want to hug someone Emax: > 30 mm
  VAS Intensity Emax: exceeding 40 mm
  VAS Liking Emax: exceeding 40 mm
  VAS Open Emax: exceeding 40 mm
  VAS Sexual arousal Emax: exceeding 20 mm
  VAS Sexual desire Emax: exceeding 20 mm
  VAS Stimulated Emax: exceeding 40 mm
  VAS Trust Emax: exceeding 40 mm
[1]; [4]
  VAS Bad effects AUC0-5/6 h: 0.38 ± 0.74 mm·h
  VAS Changes in colors AUC0-5/6 h: 1.75 ± 4.75 mm·h
  VAS Changes in distances AUC0-5/6 h: 1.53 ± 3.76 mm·h
  VAS Changes in hearing AUC0-5/6 h: 12.44 ± 23.03 mm·h
  VAS Changes in lights AUC0-5/6 h: 6.41 ± 14.74 mm·h
  VAS Concentration AUC0-5/6 h: 45.34 ± 33.03 mm·h
  VAS Confusion AUC0-5/6 h: 3.72 ± 5.72 mm·h
  VAS Different or changed body feeling AUC0-5/6 h: 87.38 ± 52.74 mm·h
  VAS Different surroundings AUC0-5/6 h: 25.56 ± 52.75 mm·h
  VAS Dizziness AUC0-5/6 h: 0.97 ± 1.49 mm·h
  VAS Drowsiness AUC0-5/6 h: 13.25 ± 20.39 mm·h
  VAS Feeling close to others AUC0-5/6 h: 116.56 ± 42.59 mm·h
  VAS Good effects AUC0-5/6 h: 129.66 ± 50.22 mm·h
  VAS High AUC0-5/6 h: 118.63 ± 44.24 mm·h
  VAS I want to be with other people AUC0-5/6 h: 62.94 ± 49.65 mm·h
  VAS I want to hug someone AUC0-5/6 h: 80.38 ± 74.45 mm·h
  VAS Intensity AUC0-5/6 h: 112.03 ± 34.05 mm·h
  VAS Liking AUC0-5/6 h: 134.09 ± 48.13 mm·h
  VAS Open AUC0-5/6 h: 112.56 ± 51.16 mm·h
  VAS Sexual arousal AUC0-5/6 h: 44.44 ± 49.02 mm·h
  VAS Sexual desire AUC0-5/6 h: 44.69 ± 48.58 mm·h
  VAS Stimulated AUC0-5/6 h: 104.81 ± 29.68 mm·h
  VAS Trust AUC0-5/6 h: 126.91 ± 60.79 mm·h
  VAS Unreal body feeling AUC0-5/6 h: 3.13 ± 6.75 mm·h
  VAS Unreal surroundings AUC0-5/6 h: 1.50 ± 4.24 mm·h
[1]; oral
  Time of peak pharmacological effects: 3 h
[2]
  ARCI A (amphetamine-like effects) Emax: 5.88 ± 0.99 points
  ARCI BG (intellectual efficiency) Emax: 4.13 ± 0.99 points
  ARCI LSD (dysphoria) Emax: 1.25 ± 2.19 points
  ARCI MBG (euphoria) Emax: 12.13 ± 2.03 points
  ARCI PCAG (sedation) Emax: 0.88 ± 4.19 points
[2]; AUC0–5h
  ARCI A (amphetamine-like effects) AUC0-5/6 h: 18.75 ± 3.54 points·h
  ARCI BG (intellectual efficiency) AUC0-5/6 h: 10.56 ± 5.30 points·h
  ARCI LSD (dysphoria) AUC0-5/6 h: 1.81 ± 4.39 points·h
  ARCI MBG (euphoria) AUC0-5/6 h: 37.56 ± 11.83 points·h
  ARCI PCAG (sedation) AUC0-5/6 h: –3.31 ± 5.44 points·h
